Data taken from patent US4425337A, “Adjuvants for rectal delivery of drug” (priority 1981, dated 1984).

Tests used:
in vivo = details: rat, 10 mg/kg
Protocol: Method: Adult male Sprague/Dawley rats (anesthetized with ethylcarbamate) were given intra-rectal aqueous microenemas. Microenemas are defined as small volume (0.3 ml) aqueous solutions containing drug/adjuvant compounds, administered with a 1 cc syringe at an intra-rectal depth of 2.5 cm. Bioavailabilities versus intravenous administration were calculated as a measure of drug delivery according to the following formula: [formula] wherein

[1] = rat, in vivo; for % Bioavailability ± SEM, Gentamicin: 90 min
Protocol: (§1) Microenemas are defined as small volume (0.3 ml) aqueous solutions containing drug/adjuvant compounds, administered with a 1 cc syringe at an intra-rectal depth of 2.5 cm.
The cefoxitin or gentamicin was administered as sodium cefoxitin or gentamicin sulfate at 10 mg/kg body weight. The adjuvants were administered at 20 mg/kg body weight and n represents the number of animals.

[2] = rat, in vivo, 10 mg/kg, 1.5 h
Protocol: as §1
AUC means area under serum drug level curve from t=0 minutes to t=90 minutes.
Gentamicin bioavailability: Concentration curves for chlorpromazine and perphenazine in rat microenema rectal delivery system.

| Molecule | % Bioavailability ± SEM, Gentamicin [1] | other results |
| --- | --- | --- |
| CO[C@@]1(NC(=O)Cc2cccs2)C(=O)N2C(C(=O)O)=C(COC(N)=O)CS[C@@H]21 [Cefoxitin, (6R-cis)-3-[[(Aminocarbonyloxy]methyl]-7-methoxy-8-oxo-7-[(2-thienylacetyl))amino]-5-thia-1-azabicyclo [4.2.0]oct-2-ene-2-carboxylic acid] | – | bioavailability at 1.5 h (in vivo): 2 ± 0.6% |
| CN(C)CCCN1c2ccccc2Sc2ccc(Cl)cc21 [Chlorpromazine, chlorpromazine] | 107 ± 6.2% | – |
| OCCN1CCN(CCCN2c3ccccc3Sc3ccc(Cl)cc32)CC1 [Perphenazine, perphenazine] | 100 ± 8.3% | – |
| CN1CCN(CCCN2c3ccccc3Sc3ccc(Cl)cc32)CC1 [Prochlorperazine] | 76 ± 10.9% | – |
| CSc1ccc2c(c1)N(CCC1CCCCN1C)c1ccccc1S2 (stereo not shown) [Tiorioazine, thioridazine] | 115 ± 11.5% | – |
| Gentamicin | – | % Bioavailability ± SEM, Gentamicin (adjuvant: None) ([1]; 10 mg/kg, 1.5 h): 1 ± 0.7%; Control bioavailability (without adjuvant) [2]: 1 ± 0.7% |
